From US20240189278A1, “NOVEL COMPOUNDS AND METHODS FOR INCREASING KLOTHO GENE EXPRESSION” (Klotho Therapeutics, Inc., priority 2017, published 2024)

Assays:
[1] = test system: aged mice; test: Pulse wave velocity (arterial stiffness) in aged mice; type: in vivo, mouse; conditions: 10 mg/kg/day IP, 2 weeks treatment
Description: (§1) Animal study protocols. This example was performed according to the guide lines of the National Institute of Health on the care and use of laboratory animals and approved by the institutional Animal Care and Use Committee of University of Oklahoma Health Science Center. AU mice were housed in cages at room temperature (2S±PC) and were provided with Purina laboratory chow No 5001) and tap Water and lithium. 6 adult mice (12 months) and 20 old mice (24-26 months) mice were next in this study. The old (aged) mice were randomly divided into three subgroups and each group had 6 or 7 mice. […] The third group received no treatment Blood pressure was measured before and after treatment with the active agent at 1 week and 2 week. Pulse wave velocity (PWV) was measured after 2 weeks treatment with active agent all animals were sacrificed and perfused transcardially with PBS under deep anesthesia (ketamine xylazine, 90/10 mg, IP). […]
Measurement of Pulse Wave Velocity: Aortic PWV was measured as described previously. […] Velocities were measured with 6-mm crystal […] Doppler probes (Indus Instruments, Webster, TX) at the transverse aortic arch and 3.5 cm distal in the abdominal aorta and collected using Doppler signal processing workstation (Indus instruments). […]

[2] = test system: DNA demethylase; test: DNA demethylase activity in aged mice; type: in vivo, mouse; conditions: 2 weeks treatment
Description: as §1
Measurement of DNA Demethylase and DNA Methylation force Activity. The DNA demethylase and DNA methyltransferase activity was measured by using DNA demethylase activity qualification kit (Abeam˜Cambridge, MA) and methyltransferase coloritnetxic assay kit (Cayman Chemical Company, Ann Arbor, Michigan). […] The absorbance was read at […] for DNA methylene activity assay and 510 nm for DNA methyltransferase activity using BioTeck Multi-Mole Microplate Readers.

[3] = test system: secreted Klotho; test: Western blot of secreted Klotho in kidney and serum of aged mice; type: in vivo, mouse
[4] = test system: elastin; test: Elastin in aortas of aged mice (immunostaining and western blot); type: in vivo, mouse
Description: as §1
Histological and Immunohistochemical Staining: Thoracic aortas were quickly excised and placed in cold (4′T) physiological saline solution. […] Aorta rings were post-fixed in 4% paraformaldehyde, embedded in paraffin and sectioned at […] thickness, Collagen was quantified by Masson' s trichrome staining as described previously. […] Blue-stained collagen areas were quantified with ImageJ (NIH, Bethesda, USA) film 4-5 regions per section. […]

[5] = test system: MMP2; test: MMP2 activity by zymogram PAGE, aortas of aged mice; type: in vivo, mouse; conditions: zymography
Description: (§2) Animal study protocols. This example was performed according to the guide lines of the National Institute of Health on the care and use of laboratory animals and approved by the institutional Animal Care and Use Committee of University of Oklahoma Health Science Center. AU mice were housed in cages at room temperature (2S±PC) and were provided with Purina laboratory chow No 5001) and tap Water and lithium. 6 adult mice (12 months) and 20 old mice (24-26 months) mice were next in this study. The old (aged) mice were randomly divided into three subgroups and each group had 6 or 7 mice. One subgroup received compound H (10 mg/kg/day1, IP, Enamine LLC, Monmouth Jct., NJ) and one group received an equal volume of DMSO (dimethyl sulfoxide, 5%) and served as a control. The third group received no treatment Blood pressure was measured before and after treatment with the active agent at 1 week and 2 week. Pulse wave velocity (PWV) was measured after 2 weeks treatment with active agent all animals were sacrificed and perfused transcardially with PBS under deep anesthesia (ketamine xylazine, 90/10 mg, IP). […]
Measurements for MMP2 and MMP9 Activity. MMP2 and MMP9 activity were measured by Zymogram PAGE (Bio˜-Rad). Briefly Lysates from thoracic aorta were quantified using BCA assay (Pierce) and prepared under non-reducing, non-denaturing conditions. […]

[6] = test system: MMP9; test: Western blot of MMP9, aortas of aged mice; type: in vivo, mouse
Description: as §2
(§3) Western Blot Analysis: Protein samples from the thoracic aorta were prepared in Lysis buffer as described previously. […] Protein abundance on western blots was quantified densitometry using Image lab software (Bio-Rad, Hercules, CA).

[7] = test system: TGF-β1; test: Western blot of TGF-β1, aortas of aged mice; type: in vivo, mouse
Description: as §2, §3

[8] = test system: TGF-β3; test: Western blot of TGF-β3, aortas of aged mice; type: in vivo, mouse
Description: as §2, §3

[9] = test system: RUNX2; test: Western blot of RUNX2, aortas of aged mice; type: in vivo, mouse
Description: as §2, §3

[10] = test system: LC3; test: Western blot of LC3 in aortas, hearts and kidneys of old mice; type: in vivo, mouse
[11] = test system: mouse vascular aortic smooth muscle cells (MOVAS); test: Western blot of treated MOVAS cells; type: cell-based; conditions: 10 μM active agent, 16 h
Description: After cells confluent, the media were switched to DMEM with or without 2° A1 serum, and the cells were then treated with 10 μM active agent or 5 nM secreted Klotho for another 16 h then harvested for western blot analysis.
Western Blot Analysis: Protein samples from the thoracic aorta were prepared in Lysis buffer as described previously. The proteins ([…] were resolved by SOS-PAGE and transferred to a nitrocellulose membrane (Bio-Rad). The membrane was then incubated overnight (4° C.) with a primary antibody against collagen-1-elastin. M1′v1P2; MMP9, ALP (Abeam1 1:1000), TGF-1, TGF˜N3 (Santa Cmz, 1:100). RUX2, or aNTulmliu (Cell Signaling. 1:1000). Goat autimouse or goat anti rabbit horseradish peroxidase (1:2000 . . . 1:5,000; Santa Cruz Biotechnology) was used as a secondary antibody find incubated for 1 hour at room temperature. Specific proteins were detected by chemiluminescent methods using Amersham™ western blotting detection reagents (GE Healthcare, UK). Protein abundance on western blots was quantified densitometry using Image lab software (Bio-Rad, Hercules, CA).

With O=C(Nc1ccccc1Cl)c1c[nH]c2ccccc12 [active agent, N-(2-chlorophenyl)-Ul-indde-3-carboxamide] the “Pulse wave velocity (PWV)” value [1] was “decreased”, the DNA demethylase activity [2] was “increased” and the “Secreted Klotho protein expression” value ([3]; kidney of 24-26 month-old mice) was “significantly increased”. The “Circulating levels of secreted Klotho” value ([3]; serum of aged mice) was “markedly increased”, the Elastin production [4] was “increased” and the MMP2 activity [5] was “decreased”. For the same compound, the MMP9 protein expression [6] was “decreased”, the TGF-β1 expression [7] was “decreased” and the TGF-β3 expression [8] was “decreased”. For the same compound, the RUNX2 expression [9] was “decreased”, the LC3 expression ([10]; aortas of old mice) was “did not affect” and the LC3 expression ([10]; hearts of old mice) was “did not affect”. For the same compound, the LC3 expression ([10]; kidneys of old mice) was “did not affect”, the MMP2 expression ([11]; Klotho free medium (KL(−))) was “did not affect” and the MMP9 expression ([11]; Klotho free medium (KL(−))) was “did not affect”. The TGFβ1 expression ([11]; Klotho free medium (KL(−))) was “did not affect”, the TGFβ3 expression ([11]; Klotho free medium (KL(−))) was “did not affect” and the MMP2 expression ([11]; regular medium) was “did not change”. For the same compound, the MMP9 expression ([11]; regular medium) was “did not change”, the TGFβ1 expression ([11]; regular medium) was “did not change” and the TGFβ3 expression ([11]; regular medium) was “did not change”.
